This passage reports melting point results from US20040242587A1, “Pyrrolo[1,2-b]pyridazine compounds” (Pfizer Inc, priority 2003, published 2004).

SMILES strings stand for the structures. Where only a bound is given, the exact number is not on record here.

In general, melting point refers to the temperature of the solid-liquid transition.

As to `Cc1cc(N2CC=C(C(N)=O)CC2)c2cc(C)c(-c3ccc(Cl)cc3Cl)n2n1` [Example 11, 1-[7-(2,4-Dichlorophenyl)-2,6-dimethylpyrrolo[1,2-b]pyridazin-4-yl]-1,2,3,6-tetrahydropyridine-4-carboxamide], the melting point was > 212 °C (dec.). `Cc1cc(N2CCC(=O)CC2)c2cc(C)c(-c3ccc(Cl)cc3Cl)n2n1` [Example 9, 1-[7-(2,4-Dichlorophenyl)-2,6-dimethylpyrrolo[1,2-b]pyridazin-4-yl]piperidin-4-one] showed a melting point of 169.7 to 171.3 °C.

In the case of `Cc1cc(N[C@@H]2CN(C(=O)OCc3ccccc3)C[C@@H]2O)c2cc(C)c(-c3ccc(Cl)cc3Cl)n2n1` [Example 1, Benzyl (3R,4S)-3-{[7-(2,4-dichlorophenyl)-2.6-dimethylpyrrolo[1,2-b]pyridazin-4-yl]amino}-4-hydroxypvrrolidine-1-carboxylate], the melting point is 105 to 110 °C.

`Cc1cc(N2CCC3(CC2)OCCO3)c2cc(C)c(-c3ccc(Cl)cc3Cl)n2n1` [Example 8, 8-[7-(2,4-Dichlorophenyl)-2,6-dimethylpyrrolo[1,2-b]pyridazin-4-yl]-1,4-dioxa-8-azaspiro[4,5]decane] showed a melting point of 193.2 to 196.4 °C.
